Data: paper PMC5459853, “Cathepsin S inhibition combines control of systemic and peripheral pathomechanisms of autoimmune tissue injury” (Scientific Reports, 2017)
“Also recorded” adds a separate entry of the source.

Columns and labels:
MRL-(Fas)lpr mice = assay: Intravenous recombinant Cat-S injection: albuminuria and glomerular ultrastructure (TEM); format: in vivo; settings: 10 µg recombinant Cat-S i.v.
Method: (§1) Four-week-old female MRL-(Fas)lpr mice were purchased from Harlan Winkelmann (Borchen, Germany) and kept under pathogen-free conditions in a 12 hour light and dark cycle with free access to food and water. All animal experiments were performed in accordance with the European protection laws of animal welfare, and with approval by the local government authorities Regierung von Oberbayern (reference number: 55.2.1-54-2532.2-11-12). At 11 or 15 weeks of age only mice with proteinuria (Albustix, Bayer AG, Leverkusen, Germany) were randomized into five different groups (n = 10) receiving different medicated diets: Three groups were fed with chow mixed with either 3, 10 or 30 mg/kg/day RO5459072, another group’s chow was mixed with 100 mg/kg/day mycophenolate mofetil (MMF), and one group received a standard diet (vehicle). The dose of MMF was chosen according to several studies reporting strong efficacy on SLE and lupus nephritis in MRL-(Fas)lpr mice[24]–[26]. […] At the age of 19 weeks all mice were sacrificed by cervical dislocation. Blood and urine samples were collected at different time points as indicated. In other experiments 7 week old female MRL-(Fas)lpr mice were randomized into three groups (n = 3) to receive a single intravenous injection of 10 µg sterile recombinant Cat-S and one group receiving vehicle (100 µl sterile PBS). One of the Cat-S groups was pretreated with 30 mg/kg/day RO5459072 starting one week prior to Cat-S injection; another group was pretreated with a total of four daily intra-peritoneal injections of the PAR-2 inhibitor GB83 (10 mg/kg).
Urinary albumin/creatinine ratios were determined using the Mouse Albumin ELISA Quantitation set (Bethyl Laboratories, Montgomery, TX) and the Creatinine FS kit (DiaSys Diagnostic Systems, Holzheim, Germany)[44]. BUN levels were determined in plasma samples using a Urea FS kit (DiaSys Diagnostic Systems). Mouse IgM, IgG and its isotypes IgG1, IgG2a and IgG2b plasma levels were measured using ELISA Sets (Bethyl Laboratories) at a plasma dilution of 1:1,000 to 1:100,000. Double-stranded DNA IgG and IgM antibodies were quantified as described. Briefly, 96 well Nunc-Immuno plates (Thermo Fisher Scientific, Roskilde, Denmark) were coated with poly-L-lysine (1:1 diluted with PBS) and incubated for two hours. […] Absorbance was measured at 450 nm using a Tecan Microplate Reader (Biotek, Winnoski, VT). Indirect immunofluorescence was used to quantify ANA in mouse plasma. […]
Mouse kidney tissue was fixed in 2% paraformaldehyde/2% glutaraldehyde and 0.1M sodium phosphate buffer (pH 7.4) for 24 hours and processed as described. Samples were analyzed with a 1200EX electron microscope (JEOL, Tokyo, Japan).

[1] = system: diversity panel consisting of nearly 100 receptor binding and enzymatic assays; assay: Diversity panel of receptor binding and enzymatic assays; settings: 10 µM concentration; data not shown
[2] = Plasma exposure on food admix (HPLC-MS/MS) and spleen p10; format: in vivo, MRL-(Fas)lpr mice
Method: as §1
Plasma samples were collected from mice during the feeding cycle on weeks 2, 4, 6 and 8 on a variable schedule of individuals after initiation of feeding with the drug-food admix on week 1. The levels in food were calculated to achieve doses of 3, 10 and 30 mg/kg/day. EDTA-treated plasma samples (29 per dose level) were frozen and subsequently analysed for the parent drug by HPLC-MS/MS. A column-trapping method (Phenonenex Luna C18 and Thermo Hypersil Gold C8 HPLC columns eluted with formic acid/water/acetonitrile mixtures on a Waters Acquity HPLC system) was used to separate the drug which was quantified using a Sciex API4000 MS/MS. The analytical range was 10–10,000 ng/ml and a stable label internal standard was used. […] All experiments were performed according to German animal protection laws and had been approved by the local government authorities.

SMILES: Cn1cc(-c2ccc(S(=O)(=O)[C@@H]3C[C@@H](C(=O)NC4(C#N)CC4)N(C(=O)C4(C(F)(F)F)CC4)C3)c(C(F)(F)F)c2)cn1 [RO5459072]
- Cat-S-induced albuminuria (MRL-(Fas)lpr mice; 30 min, RO5459072 30 mg/kg/day pretreatment, GB83 10 mg/kg i.p.): completely prevented; also recorded: entirely blocked
- Cat-S-induced glomerular endothelial cell injury (TEM) (MRL-(Fas)lpr mice; 24 h): completely prevented
- inhibition on diversity panel [1]: ≤ 30%
- mean plasma concentration (SD) ([2]; 3 mg/kg/day food admix): 172 ± 58.4 ng/mL
- mean plasma concentration (SD) ([2]; 10 mg/kg/day food admix): 648 ± 142 ng/mL
- mean plasma concentration (SD) ([2]; 30 mg/kg/day food admix): 2660 ± 575 ng/mL
- p10 fragment accumulation in the spleen ([2]; food admix, MRL-(Fas)lpr mice): robust p10 fragment accumulation
- concentration at 8 weeks ([2]; mouse, plasma, oral, food admix 262 mg/kg of food, exposure dose 30 mg/kg, over 8 weeks, female MRL-(Fas)lpr mice, read-out: stable plasma levels): 400 to 600 ng/mL
